What all share (assay type): functional
The test system of one experiment is NCI-H322M. In words: Growth inhibition of human NCI-H322M cells assessed as cell growth at 1 uM incubated for 48 hrs by sulforhodamine B assay relative to control. To be noted: read-out: Activity. (In SRB staining, fixed cells bind dye roughly in proportion to their protein.)
For experiment [1], the system named is U-251. In words: Growth inhibition of human U251 cells assessed as cell growth at 10 uM incubated for 48 hrs by sulforhodamine B assay relative to control. To be noted: U-251, 48 h, read-out: Activity.
Experiment [2] deals with Malme-3M. In words: Growth inhibition of human MALME-3M cells assessed as cell growth at 100 uM incubated for 48 hrs by sulforhodamine B assay relative to control. Particulars: read-out: Activity.
In another experiment the test system is A498. In words: Growth inhibition of human A498 cells assessed as cell growth at 0.01 uM incubated for 48 hrs by sulforhodamine B assay relative to control. To be noted: A498, 48 h, read-out: Activity.
For experiment [3], the system named is UO-31. In words: Growth inhibition of human UO31 cells assessed as cell growth at 10 uM incubated for 48 hrs by sulforhodamine B assay relative to control. Particulars: UO-31, 48 h, read-out: Activity.
In a further experiment the test system is SN12C. In words: Growth inhibition of human SN12C cells assessed as cell growth at 0.01 uM incubated for 48 hrs by sulforhodamine B assay relative to control. Particulars: read-out: Activity.
For another experiment, the system named is K562. In words: Growth inhibition of human K562 cells assessed as cell growth at 1 uM incubated for 48 hrs by sulforhodamine B assay relative to control. Particulars: K562, 48 h, read-out: Activity.
Experiment [4] deals with TK-10. In words: Growth inhibition of human TK10 cells assessed as cell growth at 10 uM incubated for 48 hrs by sulforhodamine B assay relative to control. To be noted: TK-10, 48 h, read-out: Activity.
In another experiment the test system is SF-295. In words: Growth inhibition of human SF295 cells assessed as cell growth at 0.1 uM incubated for 48 hrs by sulforhodamine B assay relative to control. Particulars: SF-295, 48 h, read-out: Activity.
Experiment [5] relates to T47D. In words: Growth inhibition of human T47D cells assessed as cell growth at 0.01 uM incubated for 48 hrs by sulforhodamine B assay relative to control. Particulars: read-out: Activity.
Experiment [6] concerns MOLT-4. In words: Growth inhibition of human MOLT4 cells assessed as cell growth at 100 uM incubated for 48 hrs by sulforhodamine B assay relative to control. To be noted: MOLT-4, 48 h, read-out: Activity.
For experiment [7], the system named is NCI-H522. In words: Growth inhibition of human NCI-H522 cells assessed as cell growth at 0.1 uM incubated for 48 hrs by sulforhodamine B assay relative to control. To be noted: NCI-H522, 48 h, read-out: Activity.
Experiment [8] relates to T47D. In words: Growth inhibition of human T47D cells assessed as cell growth at 0.1 uM incubated for 48 hrs by sulforhodamine B assay relative to control. To be noted: read-out: Activity.
In a further experiment the test system is MCF7. In words: Growth inhibition of human MCF7 cells assessed as cell growth at 10 uM incubated for 48 hrs by sulforhodamine B assay relative to control. To be noted: MCF7, 48 h, read-out: Activity.
For a further experiment, the system named is CAKI-1. In words: Growth inhibition of human Caki1 cells assessed as cell growth at 100 uM incubated for 48 hrs by sulforhodamine B assay relative to control. To be noted: CAKI-1, 48 h, read-out: Activity.
For the next experiment, the system named is 786-0. In words: Growth inhibition of human 786-0 cells assessed as cell growth at 3 uM incubated for 48 hrs by sulforhodamine B assay relative to control. To be noted: 786-0, 48 h, read-out: Activity.
The next experiment relates to HT-29. In words: Growth inhibition of human HT-29 cells assessed as cell growth at 0.3 uM incubated for 48 hrs by sulforhodamine B assay relative to control. Particulars: HT-29, 48 h, read-out: Activity.
The test system of the next experiment is Hs-578T. In words: Growth inhibition of human Hs 578T cells assessed as cell growth at 0.003 uM incubated for 48 hrs by sulforhodamine B assay relative to control. To be noted: read-out: Activity.
Experiment [9] concerns M14. In words: Growth inhibition of human M14 cells assessed as cell growth at 0.3 uM incubated for 48 hrs by sulforhodamine B assay relative to control. Particulars: M14, 48 h, read-out: Activity.
The test system of a further experiment is HCT-116. In words: Growth inhibition of human HCT116 cells assessed as cell growth at 30 uM incubated for 48 hrs by sulforhodamine B assay relative to control. To be noted: HCT-116, 48 h, read-out: Activity.
For a further experiment, the system named is SNB-75. In words: Growth inhibition of human SNB75 cells assessed as cell growth at 3 uM incubated for 48 hrs by sulforhodamine B assay relative to control. Particulars: SNB-75, 48 h, read-out: Activity.
Experiment [10] has as its system M14. In words: Growth inhibition of human M14 cells assessed as cell growth at 0.03 uM incubated for 48 hrs by sulforhodamine B assay relative to control. Particulars: M14, 48 h, read-out: Activity.
The test system of experiment [11] is MOLT-4. In words: Growth inhibition of human MOLT4 cells assessed as cell growth at 0.03 uM incubated for 48 hrs by sulforhodamine B assay relative to control. Particulars: MOLT-4, 48 h, read-out: Activity.
In experiment [12] the test system is U-251. In words: Growth inhibition of human U251 cells assessed as cell growth at 0.3 uM incubated for 48 hrs by sulforhodamine B assay relative to control. To be noted: U-251, 48 h, read-out: Activity.
In the next experiment the test system is SF-268. In words: Growth inhibition of human SF268 cells assessed as cell growth at 0.03 uM incubated for 48 hrs by sulforhodamine B assay relative to control. To be noted: SF-268, 48 h, read-out: Activity.
The test system of experiment [13] is Malme-3M. In words: Growth inhibition of human MALME-3M cells assessed as cell growth at 3 uM incubated for 48 hrs by sulforhodamine B assay relative to control. Particulars: read-out: Activity.
A further experiment has as its system KM12. In words: Growth inhibition of human KM12 cells assessed as cell growth at 0.003 uM incubated for 48 hrs by sulforhodamine B assay relative to control. To be noted: KM12, 48 h, read-out: Activity.
Another experiment deals with HCT-15. In words: Growth inhibition of human HCT15 cells assessed as cell growth at 0.003 uM incubated for 48 hrs by sulforhodamine B assay relative to control. Particulars: HCT-15, 48 h, read-out: Activity.
For experiment [14], the system named is TK-10. In words: Growth inhibition of human TK10 cells assessed as cell growth at 0.03 uM incubated for 48 hrs by sulforhodamine B assay relative to control. To be noted: TK-10, 48 h, read-out: Activity.
A further experiment relates to SR. In words: Growth inhibition of human SR cells assessed as cell growth at 0.3 uM incubated for 48 hrs by sulforhodamine B assay relative to control. Particulars: read-out: Activity.
Experiment [15] relates to NCI-H522. In words: Growth inhibition of human NCI-H522 cells assessed as cell growth at 30 uM incubated for 48 hrs by sulforhodamine B assay relative to control. Particulars: NCI-H522, 48 h, read-out: Activity.
A further experiment relates to SK-MEL-5. In words: Growth inhibition of human SK-MEL-5 cells assessed as cell growth at 0.003 uM incubated for 48 hrs by sulforhodamine B assay relative to control. To be noted: SK-MEL-5, 48 h, read-out: Activity.
For experiment [16], the system named is UO-31. In words: Growth inhibition of human UO31 cells assessed as cell growth at 0.3 uM incubated for 48 hrs by sulforhodamine B assay relative to control. Particulars: UO-31, 48 h, read-out: Activity.
Another experiment relates to DU-145. In words: Growth inhibition of human DU145 cells assessed as cell growth at 0.3 uM incubated for 48 hrs by sulforhodamine B assay relative to control. Particulars: DU-145, 48 h, read-out: Activity.
Another experiment has as its system SNB-19. In words: Growth inhibition of human SNB19 cells assessed as cell growth at 0.03 uM incubated for 48 hrs by sulforhodamine B assay relative to control. To be noted: SNB-19, 48 h, read-out: Activity.
The next experiment concerns SK-MEL-2. In words: Growth inhibition of human SK-MEL-2 cells assessed as cell growth at 30 uM incubated for 48 hrs by sulforhodamine B assay relative to control. To be noted: SK-MEL-2, 48 h, read-out: Activity.

`COc1cc2cc(Oc3ccc(NC(=O)Nc4cc(C(F)(F)F)cc(C(F)(F)F)c4)cc3)c(C)nc2cc1OC`: the results for the growth at 1 µM in the experiment with NCI-H322M and in the experiment on K562 were 59% and 32%, respectively. Also, the growth at 10 µM is -85% in the experiment on U-251 [1], -70% in the experiment with UO-31 [3], -3% with TK-10 [4] and -59% with MCF7. The growth at 100 µM is -74% in the experiment with Malme-3M [2], -42% in the experiment on MOLT-4 [6] and -60% in the experiment with CAKI-1. Moreover, the figures for the growth at 0.01 µM in the experiment on A498, with SN12C and with T47D [5] were 97%, 96% and 86%, respectively. For the same compound, the growth at 0.1 µM with SF-295 was 92%; with NCI-H522 [7], 77%; with T47D [8] it was 95%.

For `Cc1nc2cc(O)c(O)cc2cc1Oc1ccc(NC(=O)Nc2ccc(Cl)c(Cl)c2)cc1`, the growth at 3 µM with 786-0 is 98%; with SNB-75, 83%; in the experiment with Malme-3M [13], 94%. Also, the growth at 0.3 µM came to 103% with HT-29; 93% with M14 [9]; 87% in the experiment on U-251 [12]; 98% with SR; 102% in the experiment on UO-31 [16]; 106% in the experiment on DU-145. Further, the growth at 0.003 µM with Hs-578T turned out to be 93%; in the experiment on KM12, 103%; in the experiment on HCT-15 it was 100%; in the experiment with SK-MEL-5, 98%. The growth at 30 µM with HCT-116 was -26%; with NCI-H522 [15] it was -46%; with SK-MEL-2, -25%. For the same compound, the growth at 0.03 µM was found to be 89% with M14 [10]; 111% in the experiment with MOLT-4 [11]; 104% with SF-268; 104% with TK-10 [14]; 103% with SNB-19.

Consider `COc1cc2cc(Oc3ccc(NC(=O)Nc4ccc(Cl)c(Cl)c4)cc3)c(C)nc2cc1OC`, for which the figures for the growth at 1 µM in the experiment on NCI-H322M and in the experiment on K562 were 102% and 88%, respectively. Also, the growth at 10 µM in the experiment with U-251 [1] was -13%; in the experiment with UO-31 [3], 6%; in the experiment with TK-10 [4], -4%; with MCF7, 8%. Also, the growth at 100 µM was -99% in the experiment on Malme-3M [2], -12% in the experiment with MOLT-4 [6] and -64% in the experiment on CAKI-1. Moreover, the growth at 0.01 µM in the experiment on A498 was 82%; in the experiment with SN12C, 93%; with T47D [5], 100%. The growth at 0.1 µM is 87% with SF-295, 99% in the experiment with NCI-H522 [7] and 103% in the experiment with T47D [8].

On to `COc1cc2cc(Oc3ccc(NC(=O)Nc4ccc(Cl)c(C(F)(F)F)c4)cc3)c(C)nc2cc1OC`, for which the growth at 3 µM in the experiment on 786-0 came out at 16%; in the experiment with SNB-75 it was 10%; in the experiment with Malme-3M [13], 12%. Also, the growth at 0.3 µM with HT-29 was found to be 105%; in the experiment on M14 [9] it was 94%; in the experiment on U-251 [12], 94%; in the experiment with SR, 91%; with UO-31 [16], 105%; in the experiment with DU-145, 95%. Further, the growth at 0.003 µM with Hs-578T was 83%; in the experiment with KM12, 100%; with HCT-15, 95%; with SK-MEL-5, 100%. Also, the growth at 30 µM with HCT-116 is -83%; in the experiment with NCI-H522 [15], -81%; in the experiment on SK-MEL-2, -69%. Further, the growth at 0.03 µM in the experiment on M14 [10] worked out at 82%; with MOLT-4 [11], 96%; with SF-268, 91%; with TK-10 [14], 91%; in the experiment with SNB-19, 95%.
